Test system: human keratinocyte cell line HaCaT
Assay: Neutral Red Uptake (NRU) cytotoxicity test with HaCaT cells
Assay type: cell-based
Text: NRU50 values are the NRU values used in the present invention. They characterize the concentration of a substance or composition, at which the up-take of the dye neutral red is reduced to about 50% in human keratinocyte cells. Neutral red (3-amino-7-dimethylamino-2-methyl phenazine hydrochloride) is a weak cationic dye, which easily diffuses from an outer medium through a cell membrane separating individual cells into the cell interior. Changes in the cell surface or the cell membrane by potentially harmful substances reduce the dye uptake and the retention of the dye in the cell. A high NRU50 value means a slight cell-damaging action and low cytotoxicity and is a hint of an improved eye compatibility of the tested substance or composition.
The neutral red (3-amino-7-dimethylamino-2-methyl phenazine hydrochloride) taken up by the cells exposed to the test substance is extracted and measured spectrophotometrically at 540 nm. Toxicological effects cause a reduction in the amount of taken-up neutral red in comparison to separate untreated control cells. The concentration of the test substance, which leads to a reduction of the up-taken and bound neutral red amount of about 50% in comparison to the control cells, is the NRU50-value.
The HaCaT cells are grown in Dulbecco's modified Eagle's medium with 2 mM L-glutamin, 10% (v/v) foetal calf serum (FCS), 100 IU penicillin and 100 μg/ml streptomycin added in an atmosphere having 95% humidity and 5% CO2.
In pretests an approximate NRU50 value is determined with 8 different concentrations of the test substance. On this basis eight suitable concentrations around these approximate values are selected for the final measurements. The measurement is repeated with an independent batch with equal concentrations. Sodium lauryl sulfate with concentrations of 50, 25, 10 and 1 μg/ml is used as reference substance.
Approximately 2*10^4 HaCaT cells in 250 μl growth medium per receptacle are placed in 60 central receptacles of microtiter plates each with 96 receptacles. The corner receptacles act as controls and contain only the growth medium. The plates are incubated for 24 hours at 37° C. in a moist atmosphere with 5% CO2 and 95% air. The culture medium is removed and either replaced by pure treatment medium or by treatment medium containing the various concentration of the test substance to be tested or the reference substance.
After an acting time of 24 hours the treatment medium is replaced by storage medium, which contains 50 μg/ml of neutral red. The plates are placed again in the incubator for three hours. After that the medium is removed, the cells washed with a fixative (1% formaldehyde, 1% calcium chloride) and 100 μl of an extraction solution (1% acetic acid in 50% ethanol) is added to each receptacle for dye extraction. After 20 minutes the absorption is measured at 540 nm with a microplate reader. Concentration/effectiveness diagrams are drawn or plotted, expressed as percent viability of the negative control cells (CC) relative to the respective test concentrations from the average values and after correction with the null value from the BC receptacles.

With Ceteareth-20 [EUMULGIN® B2] the NRU was 5.8 µg/mL.
“PEG-60 Hydrogenated Castor Oil [CREMOPHOR® CO60]” showed an NRU50 of 203 µg/mL.
In the case of Oleth-5 [EUMULGIN® 05], the NRU is reported as 7.8 µg/mL.
With “PEG-40 Hydrogenated Castor Oil [CREMOPHOR® RH 410]” the NRU50 was 188 µg/mL.
Work on Oleth-20 [VOLPO® N20] yielded an NRU of 6.2 µg/mL.

From patent US7399479B2, “Microemulsions, especially for skin or hair treatment” (Wella AG, priority 2004, dated 2008)
